Values quoted from earlier work in patent publication US8889725B2, “Sugar-based bait” (Bayer Cropscience AG, priority 2006, dated 2014).

Tested on: Tapinoma sessile

In the case of `CCOP(=S)(OCC)O/N=C(\C#N)c1ccccc1` [phoxim, O,O-diethylthionophosphoryl-α-oximinophenylacetonitrile], the “control of the ants” value (baits with 0.05% by weight of phoxim in blackberry syrup or blackberry jam) is listed as “complete control” and the “acceptance of the bait by ants” value (baits with 0.5% to 1% by weight of phoxim) is listed as “repellent action”.
